Experimental findings from patent publication US7307083B2, “Tetrahydro-acridine and dithiolane derivatives” (priority 2005, dated 2007) are described below.

“Also recorded” adds a separate entry of the source. Read-outs that look alike come from different tables or passages of the source. Marks after values point to notes of the source that are not given here. Square brackets hold non-standard residues; d marks the D form. Peptide text beside a SMILES is read from it. Sta = CC(C)C[C@H](N)[C@@H](O)CC(=O)O Where only a bound is given, the exact number is not on record here.

Data set [1] has as its target T1, AChE-induced Aβ40 aggregation (Homo sapiens, UniProt P22303).
In data set [2] the target is T1, AChE-induced Aβ40 aggregation. The data set can be described thus: biochemical. Conditions: for inhibition at 100 µM: read-out: % of inhibition ± SEM of AChE-induced Aβ40 aggregation.
Data set [3] concerns the target human recombinant acetylcholinesterase (AChE or HuAChE) (Homo sapiens, UniProt P22303). The data set can be described thus: biochemical. Format: biochemical.
Data set [4] deals with anti-NGF mice (AD11). As to the kind of experiment: Cholinergic deficit of anti-NGF mice: ChAT immunohistochemistry, cholinergic neurones in the basal forebrain. As to conditions: i.p., 15 days, doses of Table 6.
Protocol: Immunohistochemistry was carried out to show the number of cholinergic neurones in the basal forebrain. For this purpose, sections were incubated with the monoclonal antibody anticholine acetyltransferase (1:500, Chemicon International Inc., Temecula, Calif.).
Data set [5] addresses T2, BACE1 (β-secretase) (Homo sapiens, UniProt P56817).
T2 construct: host or cells: Baculovirus expression system
As to the kind of experiment: biochemical.
Protocol: Assay for the analysis of BACE activity
BACE1 (β-secretase) purified and expressed in Baculovirus in 50 mM Tris HCl (pH=7.5), 10% glycerol (5 Units)
Assay buffer: 50 mM Sodium Acetate, pH=4.5
20 μL of substrate were added to 20 μL of the compound to be tested (or to the buffer if preparing the control well)
To start the reaction, 20 μL of BACE1 enzyme were added to the well.
The mixture was incubated at 37° C. for 60 minutes.
20 μL of the solution were added to stop the reaction. Then the fluorescence signal was read.
BACE activity was measured with a fluorimetric analysis method using a multi-well spectrofluorimeter. The peptide substrate of the analysis mimes the APP protein which is the natural substrate of BACE.
The inhibition curves were obtained for each compound by plotting on a graph the inhibition percentages obtained with respect to the logarithm of the inhibitor concentration. The linear regression parameters were determined and, when possible, the value of IC50 was extrapolated (GraphPad Prism 3.0 GraphPad Software Inc.).
The value of IC50 was calculated using GraphPad Prism software.

The target of data set [6] is butyrylcholinesterase (BChE) from human serum (Homo sapiens, UniProt P06276). As to the kind of experiment: biochemical. As to conditions: BChE from human serum; mean of two independent measurements, each in duplicate; read-out: IC50 BChE. Format: biochemical.
Sequence of butyrylcholinesterase (BChE) from human serum (P06276 29-602): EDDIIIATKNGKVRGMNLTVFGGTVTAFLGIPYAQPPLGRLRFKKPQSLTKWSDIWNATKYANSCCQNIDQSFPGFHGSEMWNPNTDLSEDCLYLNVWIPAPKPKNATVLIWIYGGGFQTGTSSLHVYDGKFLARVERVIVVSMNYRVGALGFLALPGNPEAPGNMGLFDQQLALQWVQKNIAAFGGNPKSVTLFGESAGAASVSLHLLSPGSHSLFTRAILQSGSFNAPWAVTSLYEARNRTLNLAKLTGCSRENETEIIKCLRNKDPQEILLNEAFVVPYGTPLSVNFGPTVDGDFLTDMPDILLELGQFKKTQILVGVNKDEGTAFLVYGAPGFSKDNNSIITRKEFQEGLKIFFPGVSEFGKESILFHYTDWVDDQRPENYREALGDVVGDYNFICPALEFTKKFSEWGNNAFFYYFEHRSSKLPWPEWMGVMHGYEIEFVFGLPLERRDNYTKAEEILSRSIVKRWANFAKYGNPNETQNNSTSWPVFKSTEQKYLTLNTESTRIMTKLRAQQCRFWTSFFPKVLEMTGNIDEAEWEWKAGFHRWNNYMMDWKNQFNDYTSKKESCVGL
Data set [7] has as its system SH-SY5Y cells. The data set can be described thus: Toxic effects, colorimetric MTT assay. Conditions: 24 hours; for effect on cellular viability (MTT): 0.1-50 μM. The data set is classed as cell-based. How it is done:
The results are expressed as a percentage of cells with respect to the control.
The cellular viability was expressed as a percentage of control cells and calculated by the formula Ft/Fnt×100, where Ft=absorbance of treated neurones and Fnt=absorbance of non treated neurones.
The SH-SY5Y cells were routinely grown at 37° C. in a humidified incubator with 5% CO2 in Dulbecco's modified Eagle's medium supplemented with 10% foetal calf serum (FCS), glutamine 2 mM, penicillin […] and streptomycin 50 μg/mL.

In data set [8] the test system is SH-SY5Y cells. As to the kind of experiment: Intracellular antioxidant activity: ROS formation evoked by t-BuOOH (DCFH-DA probe). Format: cell-based, human. Conditions: for % intracellular ROS: percentage increase of ROS by t-BuOOH, mean±SD of three tests; for effect on ROS formation, in words: 0.1-50 μM for LA and 7, 0.1-5 μM for 15. How it is done:
Significant inhibiting effects were obtained with concentrations of 7 or 5 μM (p<0.01), 10 μM and 50 μM (for both p<0.001).
The results are expressed as the percentage increase of intracellular ROS determined by the treatment with tert-butyl hydroperoxide. Data are reported as the mean±SD (standard deviation) of three tests independent of one another (treated against not treated; *p<0.01, **p<0.001). ^btox=cytotoxicity.

Data set [9] deals with human recombinant AChE (Homo sapiens, UniProt P22303). As to the kind of experiment: Action mechanism and inhibition constant Ki (Lineweaver-Burk method). Format: biochemical.
Sequence of human recombinant AChE (P22303 32-614): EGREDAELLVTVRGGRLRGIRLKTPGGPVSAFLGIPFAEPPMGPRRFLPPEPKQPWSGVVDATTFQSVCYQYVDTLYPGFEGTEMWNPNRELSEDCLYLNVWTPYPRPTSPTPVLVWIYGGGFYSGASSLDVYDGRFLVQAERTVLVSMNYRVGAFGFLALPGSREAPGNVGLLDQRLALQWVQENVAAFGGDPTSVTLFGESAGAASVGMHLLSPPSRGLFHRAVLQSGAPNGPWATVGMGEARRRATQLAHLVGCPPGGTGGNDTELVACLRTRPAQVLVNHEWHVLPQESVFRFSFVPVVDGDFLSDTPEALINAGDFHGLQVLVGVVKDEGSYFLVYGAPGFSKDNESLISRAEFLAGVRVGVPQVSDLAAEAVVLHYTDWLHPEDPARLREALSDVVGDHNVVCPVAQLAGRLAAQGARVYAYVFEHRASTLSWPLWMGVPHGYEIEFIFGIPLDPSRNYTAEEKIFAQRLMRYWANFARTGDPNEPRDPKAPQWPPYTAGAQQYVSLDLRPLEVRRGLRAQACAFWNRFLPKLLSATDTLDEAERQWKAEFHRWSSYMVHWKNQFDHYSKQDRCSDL
Description: Determination of the action mechanism and of the inhibition constant (Ki). […] To obtain an estimate of the competitive inhibition constant Ki, the Lineweaver-Burk method was used. […] The data obtained were plotted on a graph according to the Lineweaver-Burk method, that is indicating the reciprocal of the enzymatic velocity (1/v) as a function of the reciprocal of the substrate concentration (1/[ACTh)].

T1 sequence (P22303 32-614): as above
Sequence of human recombinant acetylcholinesterase (AChE or HuAChE) (P22303 32-614): as above
T2 sequence (P56817 46-501): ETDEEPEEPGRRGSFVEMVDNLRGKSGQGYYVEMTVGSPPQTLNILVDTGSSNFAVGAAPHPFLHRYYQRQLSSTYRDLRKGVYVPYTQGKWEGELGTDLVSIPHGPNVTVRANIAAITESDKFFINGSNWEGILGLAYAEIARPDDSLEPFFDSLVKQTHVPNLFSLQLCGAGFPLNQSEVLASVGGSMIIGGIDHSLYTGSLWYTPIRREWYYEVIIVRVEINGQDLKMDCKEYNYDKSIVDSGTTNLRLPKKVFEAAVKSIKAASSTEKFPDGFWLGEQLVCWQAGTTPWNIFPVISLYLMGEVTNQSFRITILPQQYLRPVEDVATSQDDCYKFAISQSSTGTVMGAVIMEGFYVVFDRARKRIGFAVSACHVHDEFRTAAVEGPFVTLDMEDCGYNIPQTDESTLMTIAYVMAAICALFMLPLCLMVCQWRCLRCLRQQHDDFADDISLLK

Take `O=C(CCCC[C@@H]1CCSS1)NCCCNc1c2c(nc3cc(Cl)ccc13)CCCC2` [Compound 24]: the “power versus other classic AChE inhibitors approved for AD (AChE-induced Aβ40 aggregation)” value in data set [1] is “significantly more powerful than other classic AChE inhibitors”. In [2], the inhibition at 100 µM worked out at 68 ± 3%. Moreover, in data set [3], the IC50 turned out to be 0.23 nM.
On to `O=C(O)CCCCC1CCSS1` (centres unmarked) [LA, lipoic acid, reference compound], for which the “% of inhibition ± SEM of AChE-induced Aβ40 aggregation” value in [1] (compound 100 μM) is on record as less than 5%. The “recovery of the cholinergic deficit (number of cholinergic neurones in the basal forebrain)” value (“recovery of the cholinergic deficit” for short) in data set [4] was “did not allow the complete recovery of the cholinergic deficit”.
`CC[C@H](C)[C@H](NC(=O)[C@H](CCC(=O)O)NC(=O)[C@H](CCC(=O)O)NC(=O)[C@@H](NC(=O)[C@@H](N)CCCCN)[C@@H](C)O)C(=O)N[C@@H](CO)C(=O)N[C@@H](CCC(=O)O)C(=O)N[C@H](C(=O)N[C@@H](CC(N)=O)C(=O)N[C@@H](CC(C)C)[C@@H](O)CC(=O)N[C@H](C(=O)N[C@@H](C)C(=O)N[C@@H](CCC(=O)O)C(=O)N[C@@H](Cc1ccccc1)C(=O)O)C(C)C)C(C)C` [peptide derivative of statin] (H-KTEEISEVN[Sta]VAEF-OH) showed a 50% inhibitory concentration (IC50) in [5] of 18 nM.
Turning to `O=C(CCCCC1CCSS1)NCCCNc1c2c(nc3cc(Cl)ccc13)CCCC2` (racemic) [Compound 7, 5-[1,2]dithiolan-3-yl-pentanoic acid [3-(6-chloro-1,2,3,4-tetrahydro-acridin-9-ylamino)-propyl]-amide], in [1], the “power versus other classic AChE inhibitors approved for AD (AChE-induced Aβ40 aggregation)” value is recorded as “significantly more powerful than other classic AChE inhibitors”. For the same molecule, in data set [1], the “times less powerful than propidium (AChE-induced Aβ40 aggregation)” value came out at 3. In addition, the 50% inhibitory concentration (IC50) turned out to be 10.8 nM in data set [6]; 69.7 nM in [5] (substrate 250 nM, enzyme 1 U/mL, 60 minutes, 37° C., read-out: IC50 (nM) on BACE); 45000 ± 14600 nM in data set [2]; 0.253 nM in [3]. Besides, the “recovery of the cholinergic deficit” value in data set [4] is listed as “did not allow the complete recovery of the cholinergic deficit”. In data set [7], the “effect on cellular viability (MTT)” value is reported as “did not lead to variations in cellular viability; also recorded: do not influence cellular vitality”. Also, the “% intracellular ROS” value in data set [8] (0.1 μM) is reported as 99.50 ± 3.54%; in [8] (0.5 μM), 99.67 ± 7.02%; in data set [8] (1 μM) it was 96.67 ± 8.02%; in data set [8] (5 μM), 82.50 ± 7.78%; in data set [8] (10 μM), “tox^b”; in [8] (50 μM) it was “tox^b”. In addition, the “effect on ROS formation, in words” value in [8] is on record as “inhibiting effect in ROS formation which depended strongly on the concentration”. Moreover, in [8] (SH-SY5Y, t-BuOOH), the “inhibition of ROS formation” value is given as 64%. In addition, the Ki in data set [9] is 0.155 ± 0.046 nM. In data set [9], the “type of inhibition (Lineweaver-Burk)” value was “mixed type of competitive inhibition”. For the same molecule, the inhibition at 100 µM in data set [2] turned out to be 61.8 ± 0.8%.
The molecule `COc1ccc2c3c1O[C@H]1C[C@@H](O)C=C[C@@]31CCN(C)C2` [Galantamine] displayed an IC50 in data set [5] of more than 5000 nM.
`Nc1c2c(nc3ccccc13)CCCC2` [Tacrine, reference compound]: the half-inhibitory concentration (IC50) in [5] is more than 4000 nM. Moreover, the “recovery of the cholinergic deficit” value in [4] was “did not allow the complete recovery of the cholinergic deficit”.
Turning to `CCN(C)C(=O)Oc1cccc([C@H](C)N(C)C)c1` [Rivastigmine], in data set [5], the concentration for half-maximal inhibition (IC50) is more than 3000 nM.
Consider `NCCCNc1c2c(nc3cc(Cl)ccc13)CCCC2` [Compound 15, N^1-(6-chloro-1,2,3,4-tetrahydro-acridin-9-yl)-propane-1,3-diamine], for which the “decrease of cellular viability” value in [7] (10 μM) stood at 88%; in [7] (50 μM), 99%. The “effect on cellular viability (MTT)” value in [7] is listed as “has a neurotoxic effect”. The “% intracellular ROS” value was 88.75 ± 8.41% in [8] (0.1 μM); 95.00 ± 5.20% in [8] (0.5 μM); 77.00 ± 8.76% in [8] (1 μM); 61.67 ± 9.02* % in data set [8] (5 μM); 51.25 ± 9.21** % in data set [8] (10 μM); 30.50 ± 9.04** % in [8] (50 μM). Also, the “effect on ROS formation, in words” value in data set [8] is given as “did not show any difference as regards ROS formation”. Further, the inhibition at 100 µM in data set [2] amounted to 25 ± 5%. The IC50 in data set [3] (read-out: IC50 AChE) turned out to be 21.5 nM.
